Earlier results on 5 compounds are cited in US20140172387A1, “PREDICTION OF MOLECULAR BIOACTIVATION” (Genentech, Inc., priority 2012, published 2014).

One may read the pIC50 as −log10 of the IC50, conventionally taken in molar units.

In data set [1] the target is insect nicotinic acetylcholine receptor (nAChR). The settings on record: for pIC50: insect nAChR.
In data set [2] the target is α4β2 mammalian nAChR (Homo sapiens, UniProt P17787+P43681).
Experiment in data set [3]: not given
This is another data set of the same source.

SMILES strings stand for the structures. pIC50: −log10 of the molar value. ≈ marks a conversion by molar mass, not a printed value. Like-named read-outs stand apart in the source and are kept apart here. Where only a bound is given, the exact number is not on record here.

α4β2 mammalian nAChR, sequence (P43681 29-627 limits assumed): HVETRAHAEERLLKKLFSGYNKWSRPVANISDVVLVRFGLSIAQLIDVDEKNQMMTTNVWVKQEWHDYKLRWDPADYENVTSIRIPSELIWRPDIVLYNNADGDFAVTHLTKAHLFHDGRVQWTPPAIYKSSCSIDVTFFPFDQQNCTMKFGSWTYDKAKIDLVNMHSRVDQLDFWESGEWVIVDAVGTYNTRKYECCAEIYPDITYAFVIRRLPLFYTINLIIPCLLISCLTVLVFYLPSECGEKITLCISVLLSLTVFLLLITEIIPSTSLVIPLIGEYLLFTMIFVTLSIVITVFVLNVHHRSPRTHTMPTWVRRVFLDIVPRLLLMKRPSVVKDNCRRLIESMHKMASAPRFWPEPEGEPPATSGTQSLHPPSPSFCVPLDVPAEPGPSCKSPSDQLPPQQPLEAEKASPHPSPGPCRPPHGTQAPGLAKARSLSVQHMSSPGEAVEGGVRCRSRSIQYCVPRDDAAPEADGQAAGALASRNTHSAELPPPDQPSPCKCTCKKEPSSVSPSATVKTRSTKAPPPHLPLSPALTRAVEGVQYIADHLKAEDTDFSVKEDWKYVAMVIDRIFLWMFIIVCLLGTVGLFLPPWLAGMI
α4β2 mammalian nAChR, sequence (P17787 26-502): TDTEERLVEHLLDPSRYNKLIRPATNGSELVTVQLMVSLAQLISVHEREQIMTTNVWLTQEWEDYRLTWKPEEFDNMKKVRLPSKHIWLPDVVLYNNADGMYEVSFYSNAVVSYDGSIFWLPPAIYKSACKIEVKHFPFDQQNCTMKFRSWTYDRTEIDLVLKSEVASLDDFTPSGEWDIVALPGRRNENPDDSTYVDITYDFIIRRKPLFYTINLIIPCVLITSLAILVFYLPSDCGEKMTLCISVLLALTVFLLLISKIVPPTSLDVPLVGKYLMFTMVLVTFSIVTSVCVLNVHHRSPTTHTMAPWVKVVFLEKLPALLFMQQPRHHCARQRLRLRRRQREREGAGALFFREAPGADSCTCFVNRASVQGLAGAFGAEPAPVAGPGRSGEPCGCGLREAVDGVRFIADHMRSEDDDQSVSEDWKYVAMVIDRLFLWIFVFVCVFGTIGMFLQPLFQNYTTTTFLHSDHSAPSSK

Take `CCc1nn(CCCN2CCN(c3cccc(Cl)c3)CC2)c(=O)n1CCOc1ccccc1` [Nefazodone (1), 1-(3-[4-(3-chlorophenyl)piperazin-1-yl]propyl)-3-ethyl-4-(2-phenoxyethyl)-1H-1,2,4-triazol-5(4H)-one]: the “water solubility (experimental data)” value (at pH 7) is on record as 6.41 mg/L (≈ 0.0136 mM).
For `O=[N+]([O-])NC1=NCCN1Cc1ccc(Cl)nc1` [imidacloprid (1), N-[1-[(6-Chloro-3-pyridyl)methyl]-4,5-dihydroimidazol-2-yl]nitramide], the negative-log IC50 (pIC50) in data set [1] is 8.34; in data set [2] it was 5.59. For the same compound, the “selectivity for the insect vs. the α4β2 mammalian nAChR” value in data set [1] (insect vs. mammalian α4β2 nAChR) is recorded as greater than 500 fold.
Regarding `N=C1NCCN1Cc1ccc(Cl)nc1` [imidacloprid-NH (6), imidacloprid-NH], the pIC50 in data set [1] is 5.82; in data set [2] (read-out: IC50) it was 8.09.
For `C=CCl` [vinyl chloride (1), chloroethene], the “water solubility (experimental data)” value was 2700 mg/L.
In the case of `CC(=O)Nc1ccc(O)cc1` [acetaminophen (1), N-acetyl-para-aminophenol], for the setting “at 20° C”, the “water solubility (experimental data)” value is 12780 mg/L (≈ 84.5 mM). The “excreted unchanged in urine” value in data set [3] was “up to 9 % of therapeutic dose”.
